pIC50: −log10 of the molar value.
Experiments:
[1] = test system: airway hyper-responsiveness induced by ozone; experiment: Airway hyper-responsiveness model induced by inhalation of ozone in guinea pigs (lung resistance after methacholine); type: in vivo; settings: test substance 30 mg/kg one hour before ozone inhalation, RLung after methacholine inhalation 5 hours after end of ozone exposure
Experimental: This test was performed so as to evaluate the pharmacological effect of the 7-aminoquinolinone derivatives of the present invention in an airway hyper-responsiveness model induced by inhalation of ozone in guinea pigs. The test procedure will now be described.
Guinea pigs were fasted for 18 hours or more. The animals were administered the test substance (30 mg/kg) and theophylline (100 mg/kg) one hour before ozone inhalation. For the non-stimulation group and the vehicle control group, vehicle (5 mL/kg) was administered similarly.
The animals were put into an acryl-made chamber (29×19×25 cm), subjected to induction of ozone generated by an ozonizer (EUV3-XU; EBARA JITSUGYO CO, LTD.) and exposed for 2 hours. The ozone concentration in the chamber was approximately 3 ppm. It was confirmed every 30 minutes that this concentration was maintained during exposure by an ozone monitor (EG-5000; EBARA JITSUGYO CO, LTD.) (measured value: 2.53 to 3.40 ppm). For the non-stimulation group, the animals were exposed to a mixed gas (oxygen: 95%, carbonic acid gas: 5%) similarly. The ozone concentration at that time was also confirmed similarly (acceptable concentration: 0.01 ppm or less, measured value: 0.00 to 0.01 ppm).
The measurement of airway hyper-responsiveness was performed 5 hours after the end of ozone exposure. The measurement of lung resistance (RLung) was performed according to the method of R. E. Giles et al. in the same manner as in Example 2. That is, the animals were anesthetized with Nembutal (Trade name: 50 mg/kg, i.p., sodium pentobarbital) and subjected to cannulation into esophagus and trachea. The esophagus and trachea cannulas were connected to a respirator (ventilation volume: 6 mL/kg, ventilation frequency: 60 times/min, SN-480-7) and the RLung after inhalation of methacholine (100 μg/mL, for 1.5 minutes) was measured by the respiratory function analyzer (PULMOS-II; M.I.P.S) through a flow sensor (connected to Validyle DF45F (for flow rate) and DP45P (for pressure)). The inhalation of methacholine was performed with an ultrasonic nebuliser (NE-U17; Omron Matsuzaka) connected to the respirator under artificial respiration.
Used RLung represents 10 breaths having a stable value in a range from 1 to 30 breaths after initiation of each measurement for both before inhalation and during methacholine inhalation. The average of the RLung was calculated. The extreme values in RLung that occurred when animal moved during the measurement were excluded from the calculations.
The percentage of increase of RLung was calculated by the following equation. Increase in lung resistance (%)=([RLung after inhalation of methacholine]−[RLung before administration])/[RLung before administration]×100

[2] = test system: airway hyper-responsiveness induced by peroxynitrite; experiment: Airway hyper-responsiveness model induced by exposure of peroxynitrite in guinea pigs (lung resistance after histamine); type: in vivo; settings: 30 mg/kg orally one hour before peroxynitrite, histamine 32 μg/kg i.v. on 5-day, control group 759, non-stimulation group 382
Experimental: This test was performed so as to investigate the pharmacological effect of the 7-aminoquinolinone derivative of the present invention on an airway hyper-responsiveness model induced by exposure of peroxynitrite in guinea pigs. The test procedure will now be described.
Guinea pigs were fasted for 18 hours or more. The animals were administrated the test substance (30 mg/kg) orally one hour before exposure of peroxynitrite and the neck was dissected under ether anesthesia, and then the trachea was exposed. 0.1 mL of 1 mmol/L peroxynitrite was administered intratracheally into pulmonary side by pushing with air and, after the administration, the incision was sutured and disinfected.
The measurement of airway hyper-responsiveness was performed on 5-day, taking the day of model preparation 0-day. Guinea pigs were fasted for 18 hours or more. The measurement of lung resistance; (RLung) was performed according to the method of R. E. Giles et al. (R. E. Giles, M. P. Finkel and J. Mazurowski: Use of an Analog On-Line Computer for the Evaluation of Pulmonary Resistance and Dynamic Compliance in the Anesthetized Dog. Arch. Int. Pharmacodyn. 194, 213-222 (1971)). That is, the animals were anesthetized with Nembutal (Trade name: 40 mg/kg, i.v., sodium pentobarbital) and subjected to cannulation into esophagus, trachea and jugular veins (for administration of histamine). The esophagus and trachea cannulas were connected to an artificial respirator (ventilation volume: 6 mL/kg, ventilation frequency: 60 times/min, SN-480-7) and the Rlung was measured after intravenous administration (dose of 0.1 mL/kg) of physiological saline solution and histamine (32 μg/kg) using a total plethysmograph system via flow sensor, connected to Validyne DF45F (for flow rate) and DP45P (for pressure). RLung before administration was determined by averaging values of any 3 out of 20 breaths, RLung after administration of physiological saline solution was determined by averaging values of any 3 out of 5 breaths, and RLung after administration of histamine was determined by averaging values of the following 3 breaths; 1) showing the maximum lung resistance, 2) taken just before and 3) taken just after the one with the maximum lung resistance, out less than 20 breaths. (The extreme values in RLung that occurred when animal moved during the measurement were excluded from the calculations.)
The percentage of increase in lung resistance was calculated by the following equation. Increase in lung resistance (%)=([RLung after administration of histamine]−[RLung before administration])/[RLung before administration]×100

[3] = Peroxynitrite scavenging activity (oxidation of dihydrorhodamine 123); type: biochemical; settings: oxidation of dihydrorhodamine 123 by peroxynitrite, phosphate buffer pH 7.4; read-out: 50% Inhibitory concentration on oxidation (IC50)
Experimental: This test was performed by estimating the antioxidative effect of the test substance using peroxynitrite quantitative method as a test system with dihydrorhodamine 123 so as to confirm the ability of the 7-aminoquinolinone derivatives of the present invention to scavenge peroxynitrite. This is a method described in NITRIC OXIDE: Biology and Chemistry Vol. 1, 145-157, 1997.
The test substance was weighted in an amount of approximately 10 mg, dissolved in a 10% Tween 80 solution and adjusted to 5×10^−3 mol/L. Then, the solution was diluted with 0.1 mol/L phosphate buffer (pH=7.4) to 5×10^−4 mol/L. The diluent was further diluted stepwise with a phosphate buffer containing 1% Tween 80 to obtain substance solution. The preparation was conducted before use. The final concentration of the test substance was adjusted to 3×10^−6, 1×10^−6, 3×10^−7, 1×10^−7, and 3×10^−8 mol/L, respectively.
To 20 μL of peroxynitrite solution (manufactured by DOJINDO LABORATORIES), 1980 μL of 0.1 mol/L sodium hydroxide was added and the mixture was diluted 100 times. The absorbance of the maximum absorption wavelength near 300 nm was measured using a UV-visible spectrophotometer and the concentration was calculated according to the following equation. Concentration(mmol/L)=(absorbance/1670)×100×1000
Based on the concentration calculated in the above section, dilution with a 0.1 mol/L sodium hydroxide solution was conducted and adjusted to 10 mmol/L. 990 μL of a 0.1 mol/L sodium hydroxide solution was taken into a 1.5 mL-Eppen tube. To the Eppen tube, 10 μL of a solution adjusted to 10 mmol/L was added to prepare a 100 μmol/L solution.
Dihydrorhodamine 123 was dissolved into 1.155 mL of dimethylsulfoxide, and adjusted to the concentration of 25 mmol/L. This solution was dispensed into 20 μL aliquots and then the aliquots were stored in a biomedical freezer (about −20° C.) and used as a stock solution.
To 490 μL of 0.02% Tween 80 containing 0.1 mol/L phosphate buffer, 10 μL of 25 mmol/L of a thawed dihydrorhodamine 123 stock solution was added to make 500 μmol/L. The prepared solution was diluted with 0.1 mol/L phosphate buffer (pH=7.4) 1000 times to prepare 500 nmol/L of a dihydrorhodamine 123 solution.
(1) To a 3.5 mL brown vial containing a stirring bar, 1470 μL of a 500 nmol/L dihydrorhodamine 123 solution and then 15 μL of the test substance solution was added. For the blank and control groups, 15 μL of 0.1 mol/L phosphate buffer containing 1% Tween 80, as a solvent for the test substance solution, was added. After the addition, the mixture was stirred with a stirrer for 30 minutes.
15 μL of a 100 μmol/L peroxynitrite solution was added while stirring. For the blank group, 15 μL of a 0.1 mol/L sodium hydroxide solution was added. After stirring for 15 minutes, fluorescence intensity was measured.
Fluorescence intensity of the reaction solution was measured using a spectrophotofluorometer under the following measuring conditions: excitation wavelength, 500 nm; emission wavelength, 536 nm; measuring times, one; response, 1 sec; photomultiplier tube voltage, Low; band width at excitation side, 10 nm; bandwidth at emission side, 10 nm.
The oxidation rate of dihydrorhodamine 123 when adding the test substance was calculated, taking the oxidation rate of dihydrorhodamine 123 for control as 100, according to the following equation: Oxidation rate (%) of dihydrorhodamine 123=(measured value for each group−measured value for blank)/(measured for control−measured value for blank)×100 Calculation of Oxidation Inhibition Concentration (IC50)
50% oxidation concentration, that is 50% oxidation inhibition concentration (IC50) was calculated by giving a straight line from two points surrounding 50% oxidation rate.

Structure (SMILES)	Increase in lung resistance (%) [1] [%]	Increase in lung resistance (%) [2] [%]	pIC50 [3]
CCCCCCOc1c(O)c2ccc(N)cc2n(CCCCCC)c1=O [Compound 147]	29	429	6.10
CCCCCCCCOc1c(O)c2ccc(N)cc2n(C)c1=O [Compound 55]	26	425	6.02
CCCCNc1ccc2c(OC)c(O)c(=O)n(CC)c2c1 [Compound 276]	30	430	6.09
CCCCCCOc1c(O)c2ccc(NC(=O)C=Cc3cc(OC)c(O)c(OC)c3)cc2n(C)c1=O [Compound 549]	28	423	6.10
CCCCCCCCn1c(=O)c(O)c(OC)c2ccc(N)cc21 [Compound 181]	25	425	6.03
CCCCCCCCn1c(=O)c(OC)c(O)c2ccc(N)cc21 [Compound 173]	30	430	6.05
CCCCCCOc1c(O)c2ccc(NC(=O)C=Cc3ccc(O)c(OC)c3)cc2n(C)c1=O [Compound 581]	30	430	6.12
COc1c(O)c2ccc(NC(=O)c3ccccc3)cc2n(C)c1=O [Compound 514]	31	434	6.04
COc1cc(C=CC(=O)Nc2ccc3c(O)c(OC)c(=O)n(C)c3c2)cc(OC)c1O [Compound 546]	27	422	6.10
CCCCCCOc1c(O)c2ccc(N)cc2n(C)c1=O [Compound 53]	29	440	6.06
CCCCCCCCOc1c(O)c2ccc(NC(=O)c3ccccc3)cc2n(C)c1=O [Compound 519]	26	440	6.08
CCCCCCOc1c(O)c(=O)n(C)c2cc(NC(=O)C=Cc3cc(OC)c(O)c(OC)c3)ccc12 [Compound 556]	25	426	6.05
CCNc1ccc2c(O)c(OC)c(=O)n(C)c2c1 [Compound 236]	28	428	6.06
CCCCn1c(=O)c(O)c(OC)c2ccc(N(C)C)cc21 [Compound 309]	34	435	6.10
CCCCCCCCOc1c(O)c2ccc(NC(C)=O)cc2n(C)c1=O [Compound 396]	22	421	6.03
CCCCCCCCOc1c(O)c2ccc(NC(=O)C=Cc3cc(OC)c(O)c(OC)c3)cc2n(C)c1=O [Compound 551]	22	416	6.15
C=CCOc1c(O)c2ccc(N)cc2n(C)c1=O [Compound 56]	30	434	5.98
COc1c(OC(C)=O)c(=O)n(C)c2cc(N)ccc12 [Compound 32]	32	435	6.02
CCCCOc1c(O)c2ccc(N(C)C)cc2n(CCCC)c1=O [Compound 303]	27	427	6.08
CCCCCCn1c(=O)c(OC)c(O)c2ccc(NCC)cc21 [Compound 330]	22	417	6.10
CCCCCCCCn1c(=O)c(OC)c(O)c2ccc(NCC)cc21 [Compound 359]	31	431	6.07
CCCCCCCCOc1c(O)c2ccc(N)cc2n(CC)c1=O [Compound 87]	29	432	6.08
CCCCCCNc1ccc2c(O)c(OC)c(=O)[nH]c2c1 [Compound 204]	37	439	6.05

— US8980914B2, “Therapeutic agent for chronic obstructive pulmonary disease and method for treatment for chronic obstructive pulmonary disease with the same” (Mariposa Health Limited, priority 2003, dated 2015)
